ChEMBL document CHEMBL3885861, “Open TG-GATES”

Species: Rattus norvegicus
Test: Open TG-GATES - Regimen: Single
Assay type: toxicity, organism-based, Sprague-Dawley
Parameters: regimen Single, gender Male, age 6 weeks
Conditions: in vivo, po, route gavage; for APTT / Bas / Eos / Fbg / Hb / Ht / Lym / MCH / MCHC / MCV / Mono / Neu / PT / Plat / RBC / Ret / WBC: tissue Blood; for KIDNEY_L / KIDNEY_R / KIDNEY_TOTAL: tissue Kidney; for LIVER: tissue Liver; for A/G / ALP / ALT / AST / BUN / CRE / Ca / Cl / DBIL / GLC / IP / K / LDH / Na / PL / RALB / TBIL / TC / TG / TP / gamma-GTP: tissue Plasma
[1] = 0 mg/kg, 3 h, dose level Control
[2] = 0 mg/kg, 6 h, dose level Control
[3] = 0 mg/kg, 9 h, dose level Control
[4] = 0 mg/kg, 24 h, dose level Control

## CC(C)C(=O)Nc1ccc([N+](=O)[O-])c(C(F)(F)F)c1 [FLUTAMIDE]
[1]
  TERMINAL_BW: 211.8 g
  APTT: 18.5 s
  Bas: 0%
  Eos: 1%
  Fbg: 211.2 mg/dL
  Hb: 13.4 g/dL
  Ht: 39%
  Lym: 77%
  MCH: 22.2 pg
  MCHC: 34.4%
  MCV: 64.5 fL
  Mono: 3.6%
  Neu: 17.4%
  PT: 12.7 s
  Plat: 126.5 x10_4/uL
  RBC: 604.2 x10_4/ul
  Ret: 8.3%
  WBC: 99.3 x10_2/uL
  KIDNEY_L: 1 g
  KIDNEY_R: 1 g
  KIDNEY_TOTAL: 1.9 g
  LIVER: 10 g
  A/G: 1.7
  ALP: 1054 IU/L
  ALT: 39.4 IU/L
  AST: 69.6 IU/L
  BUN: 10.8 mg/dL
  CRE: 0.3 mg/dL
  Ca: 11 mg/dL
  Cl: 103.2 meq/L
  DBIL: 0.3 mg/dL
  GLC: 193.4 mg/dL
  IP: 9.1 mg/dL
  K: 3.9 meq/L
  LDH: 165.4 IU/L
  Na: 140 meq/L
  PL: 176 mg/dL
  RALB: 3.5 g/dL
  TBIL: 0.4 mg/dL
  TC: 83.2 mg/dL
  TG: 186 mg/dL
  TP: 5.5 g/dL
  gamma-GTP: 1.4 IU/L
[2]
  TERMINAL_BW: 207.5 g
  APTT: 18.8 s
  Bas: 0%
  Eos: 0.6%
  Fbg: 228 mg/dL
  Hb: 13.7 g/dL
  Ht: 39.6%
  Lym: 80%
  MCH: 21.9 pg
  MCHC: 34.5%
  MCV: 63.3 fL
  Mono: 3.2%
  Neu: 15%
  PT: 12.5 s
  Plat: 115.8 x10_4/uL
  RBC: 625.8 x10_4/ul
  Ret: 7.2%
  WBC: 108.6 x10_2/uL
  KIDNEY_L: 0.9 g
  KIDNEY_R: 0.9 g
  KIDNEY_TOTAL: 1.9 g
  LIVER: 9 g
  A/G: 1.8
  ALP: 1030.8 IU/L
  ALT: 37.6 IU/L
  AST: 65.8 IU/L
  BUN: 8.4 mg/dL
  CRE: 0.3 mg/dL
  Ca: 10.7 mg/dL
  Cl: 102.6 meq/L
  DBIL: 0.1 mg/dL
  GLC: 193.6 mg/dL
  IP: 9.5 mg/dL
  K: 4.2 meq/L
  LDH: 140.8 IU/L
  Na: 139.8 meq/L
  PL: 157 mg/dL
  RALB: 3.5 g/dL
  TBIL: 0.2 mg/dL
  TC: 89 mg/dL
  TG: 51.8 mg/dL
  TP: 5.6 g/dL
  gamma-GTP: 1 IU/L
[3]
  TERMINAL_BW: 204.9 g
  APTT: 18.4 s
  Bas: 0%
  Eos: 1%
  Fbg: 209.2 mg/dL
  Hb: 13.4 g/dL
  Ht: 39.4%
  Lym: 76.8%
  MCH: 21.6 pg
  MCHC: 34.2%
  MCV: 63.3 fL
  Mono: 2.8%
  Neu: 18.6%
  PT: 13.2 s
  Plat: 128.5 x10_4/uL
  RBC: 621.8 x10_4/ul
  Ret: 7.7%
  WBC: 92.7 x10_2/uL
  KIDNEY_L: 1 g
  KIDNEY_R: 1 g
  KIDNEY_TOTAL: 1.9 g
  LIVER: 8.3 g
  A/G: 1.6
  ALP: 866.2 IU/L
  ALT: 32.6 IU/L
  AST: 63.4 IU/L
  BUN: 10.4 mg/dL
  CRE: 0.3 mg/dL
  Ca: 10.1 mg/dL
  Cl: 103.4 meq/L
  DBIL: 0.072 mg/dL
  GLC: 204.6 mg/dL
  IP: 10.8 mg/dL
  K: 3.7 meq/L
  LDH: 146.2 IU/L
  Na: 141.4 meq/L
  PL: 126.8 mg/dL
  RALB: 3.3 g/dL
  TBIL: 0.1 mg/dL
  TC: 68.6 mg/dL
  TG: 43 mg/dL
  TP: 5.3 g/dL
  gamma-GTP: 0.8 IU/L
[4]
  TERMINAL_BW: 219.3 g
  APTT: 17.7 s
  Bas: 0%
  Eos: 1%
  Fbg: 206.4 mg/dL
  Hb: 13.4 g/dL
  Ht: 40.4%
  Lym: 82.2%
  MCH: 21.8 pg
  MCHC: 33.3%
  MCV: 65.7 fL
  Mono: 3.2%
  Neu: 13.4%
  PT: 12.6 s
  Plat: 126.3 x10_4/uL
  RBC: 615.6 x10_4/ul
  Ret: 7.7%
  WBC: 97.9 x10_2/uL
  KIDNEY_L: 0.9 g
  KIDNEY_R: 1 g
  KIDNEY_TOTAL: 1.9 g
  LIVER: 10.2 g
  A/G: 1.7
  ALP: 878.8 IU/L
  ALT: 39.8 IU/L
  AST: 68 IU/L
  BUN: 14.2 mg/dL
  CRE: 0.4 mg/dL
  Ca: 10.3 mg/dL
  Cl: 103.2 meq/L
  DBIL: 0.084 mg/dL
  GLC: 212 mg/dL
  IP: 7.1 mg/dL
  K: 3.7 meq/L
  LDH: 136.2 IU/L
  Na: 140.6 meq/L
  PL: 135.2 mg/dL
  RALB: 3.3 g/dL
  TBIL: 0.1 mg/dL
  TC: 77.4 mg/dL
  TG: 62.6 mg/dL
  TP: 5.4 g/dL
  gamma-GTP: 0.8 IU/L
15 mg/kg, 3 h, dose level Low
  TERMINAL_BW: 209 g
  APTT: 19 s
  Bas: 0%
  Eos: 0.8%
  Fbg: 219.6 mg/dL
  Hb: 13.5 g/dL
  Ht: 39.7%
  Lym: 80%
  MCH: 22 pg
  MCHC: 33.9%
  MCV: 64.6 fL
  Mono: 3%
  Neu: 14.6%
  PT: 12.6 s
  Plat: 128.6 x10_4/uL
  RBC: 615.6 x10_4/ul
  Ret: 7.5%
  WBC: 110 x10_2/uL
  KIDNEY_L: 0.9 g
  KIDNEY_R: 0.9 g
  KIDNEY_TOTAL: 1.8 g
  LIVER: 9.3 g
  A/G: 1.7
  ALP: 1106 IU/L
  ALT: 39 IU/L
  AST: 69.6 IU/L
  BUN: 12 mg/dL
  CRE: 0.4 mg/dL
  Ca: 11 mg/dL
  Cl: 103 meq/L
  DBIL: 0.2 mg/dL
  GLC: 212.6 mg/dL
  IP: 9.8 mg/dL
  K: 3.7 meq/L
  LDH: 187.2 IU/L
  Na: 140.4 meq/L
  PL: 177.2 mg/dL
  RALB: 3.5 g/dL
  TBIL: 0.3 mg/dL
  TC: 87.8 mg/dL
  TG: 127 mg/dL
  TP: 5.6 g/dL
  gamma-GTP: 1.2 IU/L
15 mg/kg, 6 h, dose level Low
  TERMINAL_BW: 207.2 g
  APTT: 19.3 s
  Bas: 0%
  Eos: 0.8%
  Fbg: 228.6 mg/dL
  Hb: 13.3 g/dL
  Ht: 39.1%
  Lym: 78.2%
  MCH: 21.8 pg
  MCHC: 34%
  MCV: 63.9 fL
  Mono: 3.6%
  Neu: 16.8%
  PT: 12.7 s
  Plat: 126.9 x10_4/uL
  RBC: 611.2 x10_4/ul
  Ret: 7.5%
  WBC: 103.4 x10_2/uL
  KIDNEY_L: 0.9 g
  KIDNEY_R: 0.9 g
  KIDNEY_TOTAL: 1.8 g
  LIVER: 9.3 g
  A/G: 1.7
  ALP: 1000.8 IU/L
  ALT: 37 IU/L
  AST: 69.6 IU/L
  BUN: 8.8 mg/dL
  CRE: 0.3 mg/dL
  Ca: 10.6 mg/dL
  Cl: 103.2 meq/L
  DBIL: 0.1 mg/dL
  GLC: 194.8 mg/dL
  IP: 9.7 mg/dL
  K: 4 meq/L
  LDH: 154 IU/L
  Na: 140 meq/L
  PL: 159.2 mg/dL
  RALB: 3.5 g/dL
  TBIL: 0.2 mg/dL
  TC: 88.2 mg/dL
  TG: 53.8 mg/dL
  TP: 5.6 g/dL
  gamma-GTP: 1.2 IU/L
15 mg/kg, 9 h, dose level Low
  TERMINAL_BW: 204.9 g
  APTT: 18 s
  Bas: 0%
  Eos: 1%
  Fbg: 213.6 mg/dL
  Hb: 13.6 g/dL
  Ht: 39.8%
  Lym: 77.2%
  MCH: 21.8 pg
  MCHC: 34.2%
  MCV: 63.6 fL
  Mono: 3.6%
  Neu: 17.6%
  PT: 13 s
  Plat: 121.6 x10_4/uL
  RBC: 624.8 x10_4/ul
  Ret: 7.7%
  WBC: 91.2 x10_2/uL
  KIDNEY_L: 0.9 g
  KIDNEY_R: 0.9 g
  KIDNEY_TOTAL: 1.9 g
  LIVER: 8.4 g
  A/G: 1.6
  ALP: 967.8 IU/L
  ALT: 31.8 IU/L
  AST: 62.2 IU/L
  BUN: 10.6 mg/dL
  CRE: 0.3 mg/dL
  Ca: 10.3 mg/dL
  Cl: 103.8 meq/L
  DBIL: 0.082 mg/dL
  GLC: 207.8 mg/dL
  IP: 9.8 mg/dL
  K: 3.7 meq/L
  LDH: 182.2 IU/L
  Na: 141.8 meq/L
  PL: 131.4 mg/dL
  RALB: 3.4 g/dL
  TBIL: 0.1 mg/dL
  TC: 69.8 mg/dL
  TG: 45.4 mg/dL
  TP: 5.6 g/dL
  gamma-GTP: 0.8 IU/L
15 mg/kg, 24 h, dose level Low
  TERMINAL_BW: 218.9 g
  APTT: 17.6 s
  Bas: 0%
  Eos: 1%
  Fbg: 212 mg/dL
  Hb: 13.6 g/dL
  Ht: 40.3%
  Lym: 78.6%
  MCH: 22 pg
  MCHC: 33.8%
  MCV: 64.9 fL
  Mono: 3.8%
  Neu: 16%
  PT: 12.5 s
  Plat: 125.4 x10_4/uL
  RBC: 621.2 x10_4/ul
  Ret: 6.6%
  WBC: 79.6 x10_2/uL
  KIDNEY_L: 0.9 g
  KIDNEY_R: 1 g
  KIDNEY_TOTAL: 1.9 g
  LIVER: 10.7 g
  A/G: 1.7
  ALP: 981 IU/L
  ALT: 39 IU/L
  AST: 72.2 IU/L
  BUN: 13.8 mg/dL
  CRE: 0.4 mg/dL
  Ca: 10.4 mg/dL
  Cl: 104.6 meq/L
  DBIL: 0.094 mg/dL
  GLC: 205.6 mg/dL
  IP: 7.1 mg/dL
  K: 3.8 meq/L
  LDH: 155.2 IU/L
  Na: 141.8 meq/L
  PL: 146 mg/dL
  RALB: 3.5 g/dL
  TBIL: 0.2 mg/dL
  TC: 81.2 mg/dL
  TG: 83.4 mg/dL
  TP: 5.5 g/dL
  gamma-GTP: 1 IU/L
